In EP0845217A1, “Inhibiting undesirable taste in oral compositions” (priority 1996, dated 1998):

Columns and labels:
[1] = system: purified protein tyrosine phosphatase; assay: Purified protein tyrosine phosphatase, dephosphorylation of phosphotyrosine-containing peptide substrates; format: biochemical; details: experiments not described
[2] = target: alkaline phosphatase (Bos taurus, UniProt P19111); format: biochemical, bovine; details: PNPP substrate
Description: Enzyme kinetics experiments are done using purified alkaline phosphatase from bovine intestine and the substrate para-nitrophenyl phosphate (PNPP). The formation of colored para-nitrophenol (PNP) from colorless PNPP is followed by measuring the color formation in the presence of inhibitor at several concentrations.
Specifically, enzyme reactions are done in a volume of 200 ul containing 12.5 mU/ml alkaline phosphatase, PNPP at concentrations between 0.5-200 mM, and an inhibitor at concentrations between 0-100 mM. […] Phosphoserine is the natural substrate for this enzyme. The final buffer solution is 0.9 M diethanolamine and 0.5 mM […], pH 9.8, mixed 3:1 (v:v) with water. Reactions are done in a 96-well microtiter plate. The enzyme reaction is initiated by the addition of the enzyme. Each reaction mixture is done in triplicate. The enzyme reaction is monitored by measuring the optical density (OD) at 405 nm, with a reference OD of 490 nm. The OD's are read every 30 seconds over a 15 minute period at room temperature. PNP concentration is determined based on a standard curve correlating OD405/490 vs. PNP concentration. […] The data is then transformed and plotted as the Kmapp / Vmax. vs. inhibitor concentration. From these plots the dissociation constant of the enzyme-inhibitor complex, Ki, is determined. The x-intercept on this plot equals (-Ki). […]

[3] = system: acid phosphatase (EC 3.1.3.2) type V; assay: Acid phosphatase enzyme kinetics with PNPP substrate; format: biochemical, bovine
Description: Enzyme kinetics are done using purified acid phosphatase (EC 3.1.3.2) type V from bovine milk with PNPP as the substrate. The enzyme kinetics experiments are done similarly to the kinetics experiments for alkaline phosphatase, described above.
The buffer is 0.2 M sodium acetate buffer, pH 5.6. Reactions are done in a 96-well microtiter plate. The enzyme reaction is initiated by the addition of enzyme. The enzyme reaction is stopped by the addition of 50 ul of 3 N NaOH to each well. Reaction times are from 0-15 minutes, at 30 second intervals. As described previously, the reaction rate is determined by measurement of the formation of colored product, PNP, which correlates with OD405/490. Acid phosphatase has a linear enzyme reaction rate for 15 minutes with the concentration ranges tested. Calculation of the Ki is done as described above.

Chain of alkaline phosphatase (P19111 20-506): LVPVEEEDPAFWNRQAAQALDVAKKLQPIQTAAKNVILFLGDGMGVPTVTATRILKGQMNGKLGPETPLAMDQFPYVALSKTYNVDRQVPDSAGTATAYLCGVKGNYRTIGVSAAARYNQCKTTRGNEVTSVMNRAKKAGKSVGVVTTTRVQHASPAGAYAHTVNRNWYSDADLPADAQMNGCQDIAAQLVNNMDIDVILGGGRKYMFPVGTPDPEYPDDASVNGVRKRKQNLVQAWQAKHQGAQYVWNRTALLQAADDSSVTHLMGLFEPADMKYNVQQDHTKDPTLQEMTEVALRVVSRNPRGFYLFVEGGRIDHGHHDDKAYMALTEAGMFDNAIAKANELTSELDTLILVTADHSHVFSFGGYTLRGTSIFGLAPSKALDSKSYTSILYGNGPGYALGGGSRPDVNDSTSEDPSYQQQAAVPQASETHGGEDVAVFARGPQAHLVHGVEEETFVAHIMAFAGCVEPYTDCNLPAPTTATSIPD

vanillylmonophosphate [VMP]
effect on tyrosine phosphatase activity against peptide substrates [1]: inhibits the activity | type of inhibition of alkaline phosphatase [2]: competitively inhibited | type of inhibition of acid phosphatase ([3]; PNPP substrate): competitively inhibited | Ki ([3]; PNPP substrate at room temperature, pH 5.6): 9.16 mM
